Measured values reported in ChEMBL document CHEMBL1145387, “Carbonic anhydrase activators: activation of the human isoforms VII (cytosolic) and XIV (transmembrane) with amino acids and amines” (Bioorg Med Chem Lett, 2007).

Assays:
[1] = target: Carbonic anhydrase 7 (Homo sapiens) (UniProt P43166); assay: Activation of human recombinant CA7 by CO2 hydrase assay
[2] = target: Carbonic anhydrase 14 (Homo sapiens) (UniProt Q9ULX7); assay: Activation of human recombinant CA14 by CO2 hydrase assay
[3] = target: Carbonic anhydrase 1 (Homo sapiens) (UniProt P00915); assay: Activation of human recombinant CA1 by CO2 hydrase assay
[4] = target: Carbonic anhydrase 2 (Homo sapiens) (UniProt P00918); assay: Activation of human recombinant CA2 by CO2 hydrase assay

Carbonic anhydrase 14 (Homo sapiens), sequence (Q9ULX7 whole entry): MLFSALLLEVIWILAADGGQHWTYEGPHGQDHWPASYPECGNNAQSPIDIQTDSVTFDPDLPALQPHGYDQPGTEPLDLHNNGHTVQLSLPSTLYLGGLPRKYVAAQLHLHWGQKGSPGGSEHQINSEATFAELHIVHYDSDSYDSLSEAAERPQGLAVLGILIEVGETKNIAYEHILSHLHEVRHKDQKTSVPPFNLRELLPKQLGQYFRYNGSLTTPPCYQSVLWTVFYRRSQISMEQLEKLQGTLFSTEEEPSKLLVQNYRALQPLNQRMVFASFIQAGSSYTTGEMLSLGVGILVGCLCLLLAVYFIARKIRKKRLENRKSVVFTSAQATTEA
Carbonic anhydrase 7 (Homo sapiens), sequence (P43166 whole entry): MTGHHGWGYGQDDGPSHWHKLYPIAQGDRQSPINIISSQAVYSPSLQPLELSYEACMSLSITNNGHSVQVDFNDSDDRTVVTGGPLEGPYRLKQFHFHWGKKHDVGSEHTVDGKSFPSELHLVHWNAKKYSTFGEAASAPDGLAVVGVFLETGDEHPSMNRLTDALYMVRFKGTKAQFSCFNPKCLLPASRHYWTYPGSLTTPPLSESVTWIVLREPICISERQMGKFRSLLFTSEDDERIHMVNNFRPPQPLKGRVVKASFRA
Carbonic anhydrase 1 (Homo sapiens), sequence (P00915 2-261 limits assumed): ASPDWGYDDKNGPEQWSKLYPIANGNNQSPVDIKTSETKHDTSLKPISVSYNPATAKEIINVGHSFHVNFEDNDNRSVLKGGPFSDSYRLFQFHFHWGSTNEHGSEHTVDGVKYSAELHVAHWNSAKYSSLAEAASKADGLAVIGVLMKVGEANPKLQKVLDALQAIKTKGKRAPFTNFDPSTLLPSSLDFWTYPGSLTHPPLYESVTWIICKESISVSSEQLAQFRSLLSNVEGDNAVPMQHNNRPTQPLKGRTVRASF

**Q.** How did the KA [1] turn out when N[C@H](Cc1c[nH]c2ccccc12)C(=O)O was run?
**A.** 39.6 µM

**Q.** And the KA [2]?
**A.** 18 µM

**Q.** N[C@@H](Cc1c[nH]cn1)C(=O)O was tested. Which KA [1] did it give?
**A.** 0.92 µM

**Q.** What about the KA [2] of the same compound?
**A.** 0.9 µM

**Q.** What does the source list for NCc1ccccn1?
**A.** KA [1]: 43.7 µM; KA [2]: 21.7 µM

**Q.** For N[C@@H](Cc1ccc(O)c(O)c1)C(=O)O, which KA [1] is on record?
**A.** 58.3 µM

**Q.** And the KA [2]?
**A.** 12.1 µM

**Q.** With NCCN1CCOCC1 as the compound, how does the KA [1] read?
**A.** 64.3 µM

**Q.** What about the KA [2] of the same compound?
**A.** 5.4 µM

**Q.** Which results are given for Nc1ccc(C[C@H](N)C(=O)O)cc1?
**A.** KA [3]: 0.24 µM; KA [1]: 39.6 µM; KA [4]: 0.15 µM; KA [2]: 18 µM

**Q.** NCCc1c[nH]c2ccc(O)cc12 was tested. Which KA [1] did it give?
**A.** 0.93 µM

**Q.** What about the KA [2] of the same compound?
**A.** 6.5 µM

**Q.** With CNC[C@@H](O)c1ccc(O)c(O)c1 as the compound, how does the KA [3] read?
**A.** 0.09 µM

**Q.** What about the KA [1] of the same compound?
**A.** 60 µM

**Q.** What about the KA [4] of the same compound?
**A.** 96 µM

**Q.** And the KA [2]?
**A.** 36.1 µM

**Q.** Which KA [1] does the source give for N[C@@H](Cc1c[nH]c2ccccc12)C(=O)O here?
**A.** 57.5 µM

**Q.** And the KA [2]?
**A.** 16.5 µM

**Q.** NCCN1CCNCC1 was tested. Which KA [1] did it give?
**A.** 32.5 µM

**Q.** What about the KA [2] of the same compound?
**A.** 18.3 µM

**Q.** For N[C@H](Cc1ccc(O)c(O)c1)C(=O)O, which KA [1] is on record?
**A.** 58.3 µM

**Q.** And the KA [2]?
**A.** 36.8 µM

**Q.** Which results are given for NCCc1ccc(O)c(O)c1?
**A.** KA [1]: 0.89 µM; KA [2]: 14.6 µM

**Q.** Which results are given for N[C@@H](Cc1ccc(O)cc1)C(=O)O?
**A.** KA [3]: 0.02 µM; KA [1]: 20.3 µM; KA [4]: 0.011 µM; KA [2]: 21.8 µM

**Q.** For NCCc1c[nH]cn1, which KA [1] is on record?
**A.** 37.5 µM

**Q.** And the KA [2]?
**A.** 0.01 µM

**Q.** N[C@H](Cc1c[nH]cn1)C(=O)O was tested. Which KA [1] did it give?
**A.** 0.71 µM

**Q.** What about the KA [2] of the same compound?
**A.** 2.37 µM

**Q.** With NCCc1ccccn1 as the compound, how does the KA [1] read?
**A.** 27.8 µM

**Q.** What about the KA [2] of the same compound?
**A.** 6.9 µM
